Here are results for one compound from patent publication US20160038459A1, “COMPOSITIONS AND METHODS FOR THE TREATMENT OF NATAL AND PRE-NATAL CONDITIONS WITH ALPHA-TOCOPHEROL” (Northwestern University, priority 2014, published 2016).

The subject of data set [1] is lung tissue cytokines and eotaxins. The data set can be described thus: Pup lung cytokines, chemokines, IDO and MHCII by qPCR; BAL CCL24 by ELISA. Type of data set: in vivo, C57BL/6 mice. On the procedure: Total RNA was isolated from 50 to 100 mg lung tissue using the QIAGEN RNeasy Fibrous Tissue Mini Kit. cDNA was prepared using a SuperScript II RNase H-Reverse Transcriptase kit (Invitrogen) and analyzed by PCR on an ABI 7300 Thermal Cycler (Applied Biosystems). Taqman probes and Taqman Universal Master Mix were used as directed (Applied Biosystems). CCL24 in the BAL also was examined by ELISA (Raybiotech).
On the technique in general: In qPCR the cycle at which signal appears reflects the starting amount.

Data set [2] relates to fetal liver dendritic cell subsets. The experiment in a line: Flow cytometry analysis of gestational day 18 fetal liver dendritic cells. The class given is in vivo, C57BL/6 mice. On the procedure:
Following BAL of pups, lungs were removed for analysis of dendritic cell types by flow cytometry. In the fetus, hematopoiesis occurs in the fetal livers. Gestational day 18 fetal livers were collected for analysis of fetal liver DCs. Briefly, tissues were minced and suspended in 5 ml of RPMI solution containing 1 mg/ml collagenase D (Roche) and 0.2 mg/ml DNase I (Roche) at 37° C. with agitation. After 1 h, samples were filtered through sterile 70-μm mesh tissue, centrifuged, and resuspended in 5% FBS-RPMI solution. Red blood cells were lysed in 1×BD PharmLyse Lysing Buffer (BD Biosciences), and the cells were washed two times in PBS. All centrifugation steps were carried out at 300 g for 5 min. Three million cells were used per sample for immunolabeling. […]
The cells were examined with a BD LSRII flow cytometer (BD Biosciences). […] Fluorescence Minus One staining controls were used as negative controls to identify gates for populations of interest. The following subpopulations of DCs were analyzed: 1) resident conventional DCs: CD11b+Ly6C−CD11chighMHCIIhigh; 2) CD11b+ alveolar DCs: CD11b+Ly6C−CD11c+MHCII−; 3) inflammatory DCs: CD11b+Ly6C+CD11c+MHCII+; 4) plasmacytoid DCs (pDCs): CD11b−Ly6C−CD11clowPDCA-1+MHCII−; 5) resident CD103+DCs: CD11b−Ly6C−CD11c+CD103+MHCII−; and 6) CD11b−alveolar DCs: CD11b−Ly6C−CD11c+MHCII+/−. […]

For data set [3], the system named is bone marrow-derived CD11c+CD11b+ DCs. The experiment in a line: Bone marrow-derived dendritic cell culture with GM-CSF in vitro. Type of data set: cell-based, mice. The conditions noted are these: 80 μM vs DMSO. On the procedure:
For bone marrow-derived postnatal day 10 pup dendritic cell cultures, a single cell suspension of bone marrow from 10-day-old mice was placed in RPMI 1640, glutamine, HEPES, gentamycin sulfate, penicillin/streptomycin, and 10% heat-inactivated FCS. The bone marrow cells were treated with the DMSO solvent control (0.01%) or D-α-tocopherol (80 μM) as we previously described for in vitro treatment with D-α-tocopherol (7). The cells were stimulated with 5 ng granulocyte macrophage colony-stimulating factor (GM-CSF) per milliliter. The culture medium with tocopherol and GM-CSF was replaced on days 2, 4, and 7. […]

[4] abbreviates: maternal supplementation during pregnancy/lactation, first litter, PND13, qPCR.
The mark [5] stands for this setting: second litter, 500 mg/kg maternal diet, OVA-challenged pups from allergic mothers.
[6] abbreviates: bone marrow from 10-day-old neonates, 8 days.

On to `Cc1c(C)c2c(c(C)c1O)CC[C@@](C)(CCC[C@H](C)CCC[C@H](C)CCCC(C)C)O2` [D-α-tocopherol, D-α-Tocopherol], for which, in data set [1] (setting [4]), the “OVA-induced pup lung mRNA expression of CCL11” value is “inhibited”, the “OVA-induced pup lung mRNA expression of CCL24” value was “inhibited”, the “OVA-induced pup lung mRNA expression of IL-4” value was “inhibited” and the “OVA-induced pup lung mRNA expression of IL-33” value was “inhibited”. The “protein expression of CCL24 in BAL supernatant” value in data set [1] (maternal supplementation during pregnancy/lactation, PND13, ELISA) is “inhibited”. In data set [1] (setting [5]), the “whole lung expression of IFNγ” value was “no effect”, the “whole lung expression of IL-2” value is “no effect”, the “whole lung expression of IL-10” value is on record as “no effect” and the “whole lung expression of MHCII” value is recorded as “no effect”. Besides, in data set [1] (setting [5]), the “whole lung expression of TNF-α” value is given as “no effect”, the “whole lung mRNA expression of CCL11” value was “reduced”, the “whole lung mRNA expression of CCL24” value was “reduced” and the “whole lung mRNA expression of IL-4” value is “reduced”. Besides, in data set [1] (setting [5]), the “whole lung mRNA expression of IL-33” value is listed as “reduced” and the “whole lung mRNA expression of TSLP” value is recorded as “reduced”. Further, in data set [1] (second litter, 500 mg/kg maternal diet, pups from allergic mothers and saline mothers), the “lung tissue expression of IDO” value is recorded as “reduced”. Also, the “fetal liver CD11c+CD11b− subsets” value in data set [2] (maternal supplementation (data not shown)) was “not altered”. Also, in data set [2] (supplementation of allergic mothers), the “number of CD11c+CD11b+DCs in fetal livers, including phenotype of mDCs and of resident DCs” value was “reduced”. Also, in data set [3] (8 days (data not shown)), the “percent of viable cells in the culture” value was “without affecting”. In addition, in data set [3] (setting [6]), the “number of CD45+CD11b+CD11+DCs” value is on record as “reduced” and the “number of cells with resident DC phenotype (CD45+CD11b+CD11c+Ly6c−MHCII−DCs)” value is given as “reduced”.
